Like-named read-outs stand apart in the source and are kept apart here.
Columns and labels:
[1] = tested on: BT-474 organoids; test: Endpoint ATP-release assay (CellTiter-Glo) of organoid viability; type: cell-based; details: for viability at 0.1 µM / viability at 1 µM / viability at 10 µM / viability at 50 µM: Homo sapiens
Method: All drug treatments of 3D organoids were performed in serum-free conditions in MammoCult™ medium supplemented with 1% antibiotic-antimycotic (Gibco 15240-062). A detailed protocol for the drug screening has been published previously in Phan, N. et al. supra; and Nguyen, H. T. L. & Soragni, supra. Briefly, the culture medium was fully removed three days after seeding and replaced with 100 μL of MammoCult™ medium containing the indicated treatments using an automated pipetting system (EpMotion® 96). After treatment, we transferred the organoids to the HSLCI for imaging. […] The media was aspirated from each well and replaced with 50 μL of 5 mg/mL Dispase (Thermo-Fisher) solution to digest the Matrigel. After a 25-minute incubation at 37° C., the plate was placed on an orbital shaker for 5 minutes at 80 RPM. We then added 30 μL of CellTiter-Glo® reagent (Promega), sealed the plate with film, covered the plate with foil to protect from light, shook the plate for 5 minutes at 80 RPM, and incubated at room temperature for an additional 20 minutes. We used a SpectraMax iD3 plate reader to measure luminescence. The program parameters for luminescence readings were 5 minutes of shaking prior to reading, reading all wavelengths, and integrating signal over 500 ms. Organoid viability within each well was calculated by dividing the luminescent signal from each well by the mean luminescence of the control (1% DMSO) wells. Two-tailed independent t-tests were performed to assess the statistical significance of the differences in organoid mass and cell viability. P-values less than 0.05 were deemed significant.

[2] = tested on: MCF-7 organoids; test: as above; type: cell-based; details: for viability at 0.1 µM / viability at 1 µM / viability at 10 µM / viability at 50 µM: Homo sapiens
Method: All drug treatments of 3D organoids were performed in serum-free conditions in MammoCult™ medium supplemented with 1% antibiotic-antimycotic (Gibco 15240-062). A detailed protocol for the drug screening has been published previously in Phan, N. et al. supra; and Nguyen, H. T. L. & Soragni, supra. Briefly, the culture medium was fully removed three days after seeding and replaced with 100 μL of MammoCult™ medium containing the indicated treatments using an automated pipetting system (EpMotion® 96). After treatment, we transferred the organoids to the HSLCI for imaging. Organoids were imaged by HSLCI between 6 hours and 48 hours after treatment. After imaging, we performed an ATP assay to assess cell viability in accordance with the manufacturer's instructions. The media was aspirated from each well and replaced with 50 μL of 5 mg/mL Dispase (Thermo-Fisher) solution to digest the Matrigel. After a 25-minute incubation at 37° C., the plate was placed on an orbital shaker for 5 minutes at 80 RPM. We then added 30 μL of CellTiter-Glo® reagent (Promega), sealed the plate with film, covered the plate with foil to protect from light, shook the plate for 5 minutes at 80 RPM, and incubated at room temperature for an additional 20 minutes. We used a SpectraMax iD3 plate reader to measure luminescence. The program parameters for luminescence readings were 5 minutes of shaking prior to reading, reading all wavelengths, and integrating signal over 500 ms. Organoid viability within each well was calculated by dividing the luminescent signal from each well by the mean luminescence of the control (1% DMSO) wells. Two-tailed independent t-tests were performed to assess the statistical significance of the differences in organoid mass and cell viability. P-values less than 0.05 were deemed significant.

[3] = BT-474, 48 h, read-out: Comparisons of cell viability measures by ATP detection assay, Mean mass ± SD
[4] = BT-474, 72 h, read-out: Organoid viability by endpoint ATP assay, Viability ± SD
[5] = MCF7, 6 h, read-out: Comparisons of cell viability measures by ATP detection assay, Mean mass ± SD
[6] = MCF7, 72 h, read-out: Organoid viability by endpoint ATP assay, Viability ± SD

Q: Which results are given for `CS(=O)(=O)CCNCc1ccc(-c2ccc3ncnc(Nc4ccc(OCc5cccc(F)c5)c(Cl)c4)c3c2)o1` [Lapatinib, lapatinib]?
A: Organoid viability by endpoint ATP assay, Viability ± SD ([1]; BT-474, 0.1 μM, 72 h of treatment, luminescence relative to 1% DMSO control): significant reductions in viability; viability at 0.1 µM ([1]; BT-474, listed as printed as 48 hours, 0.1 μM, relative to 1% DMSO, read-out: Comparisons of cell viability measures by ATP detection assay, Mean mass ± SD): 70 ± 18%; viability at 1 µM ([1]; BT-474, listed as printed as 48 hours, 1 μM, relative to 1% DMSO, read-out: Comparisons of cell viability measures by ATP detection assay, Mean mass ± SD): 43 ± 9%; viability at 10 µM ([1]; BT-474, listed as printed as 48 hours, 10 μM, relative to 1% DMSO, read-out: Comparisons of cell viability measures by ATP detection assay, Mean mass ± SD): 32 ± 4%; viability at 50 µM ([1]; BT-474, listed as printed as 48 hours, relative to 1% DMSO, read-out: Comparisons of cell viability measures by ATP detection assay, Mean mass ± SD): 9 ± 7%; viability at 0.1 µM ([1]; BT-474, 0.1 μM, 72 h of treatment, luminescence relative to 1% DMSO control, read-out: Organoid viability by endpoint ATP assay, Viability ± SD): 70 ± 18%; viability at 1 µM ([1]; BT-474, 1 μM, 72 h of treatment, luminescence relative to 1% DMSO control, read-out: Organoid viability by endpoint ATP assay, Viability ± SD): 43 ± 9%; viability at 10 µM ([1]; BT-474, 10 μM, 72 h of treatment, luminescence relative to 1% DMSO control, read-out: Organoid viability by endpoint ATP assay, Viability ± SD): 32 ± 4%; viability at 50 µM ([1]; BT-474, 72 h of treatment, luminescence relative to 1% DMSO control, read-out: Organoid viability by endpoint ATP assay, Viability ± SD): 9 ± 7%; viability at 0.1 µM ([2]; MCF7, MCF-7, 0.1 μM, 72 h of treatment, luminescence relative to 1% DMSO control, read-out: Organoid viability by endpoint ATP assay, Viability ± SD): 100 ± 3%; viability at 1 µM ([2]; MCF7, MCF-7, 1 μM, 72 h of treatment, luminescence relative to 1% DMSO control, read-out: Organoid viability by endpoint ATP assay, Viability ± SD): 101 ± 4%; viability at 10 µM ([2]; MCF7, MCF-7, 10 μM, 72 h of treatment, luminescence relative to 1% DMSO control, read-out: Organoid viability by endpoint ATP assay, Viability ± SD): 66 ± 7%; viability at 50 µM ([2]; MCF7, MCF-7, 72 h of treatment, luminescence relative to 1% DMSO control, read-out: Organoid viability by endpoint ATP assay, Viability ± SD): 14 ± 3%; viability at 0.1 µM ([2]; MCF7, listed as printed as 6 hours, 0.1 μM, relative to 1% DMSO, read-out: Comparisons of cell viability measures by ATP detection assay, Mean mass ± SD): 100 ± 3%; viability at 1 µM ([2]; MCF7, listed as printed as 6 hours, 1 μM, relative to 1% DMSO, read-out: Comparisons of cell viability measures by ATP detection assay, Mean mass ± SD): 101 ± 4%; viability at 10 µM ([2]; MCF7, listed as printed as 6 hours, 10 μM, relative to 1% DMSO, read-out: Comparisons of cell viability measures by ATP detection assay, Mean mass ± SD): 66 ± 7%; viability at 50 µM ([2]; MCF7, listed as printed as 6 hours, relative to 1% DMSO, read-out: Comparisons of cell viability measures by ATP detection assay, Mean mass ± SD): 14 ± 3%

Q: For `CN[C@@H]1C[C@H]2O[C@@](C)([C@@H]1OC)n1c3ccccc3c3c4c(c5c6ccccc6n2c5c31)C(=O)NC4` [Staurosporine, staurosporine], which “Organoid viability by endpoint ATP assay, Viability ± SD” value (shortened to “Organoid viability … Viability ± SD”) ([1]; BT-474, 1 μM, 72 h of treatment, luminescence relative to 1% DMSO control) is on record?
A: near-zero viability

Q: And the “Organoid viability … Viability ± SD” value ([1]; BT-474, 10 μM, 72 h of treatment, luminescence relative to 1% DMSO control)?
A: near-zero viability

Q: And the viability at 0.1 µM [1, 3]?
A: 58 ± 14%

Q: What about the viability at 1 µM [1, 3] of the same compound?
A: 2 ± 1%

Q: What about the viability at 10 µM [1, 3] of the same compound?
A: 1%

Q: And the viability at 0.1 µM [1, 4]?
A: 58 ± 14%

Q: And the viability at 1 µM [1, 4]?
A: 2 ± 1%

Q: What about the viability at 10 µM [1, 4] of the same compound?
A: 1%

Q: And the viability at 0.1 µM [2, 5]?
A: 50 ± 8%

Q: And the viability at 1 µM [2, 5]?
A: 17 ± 4%

Q: What about the viability at 10 µM [2, 5] of the same compound?
A: 13 ± 3%

Q: What about the viability at 0.1 µM [2, 6] of the same compound?
A: 50 ± 8%

Q: What about the viability at 1 µM [2, 6] of the same compound?
A: 17 ± 4%

Q: What about the viability at 10 µM [2, 6] of the same compound?
A: 13 ± 3%

Q: And the “Organoid viability … Viability ± SD” value ([2]; MCF-7, 1 μM, 72 h of treatment, luminescence relative to 1% DMSO control)?
A: near-zero viability

Q: And the “Organoid viability … Viability ± SD” value ([2]; MCF-7, 10 μM, 72 h of treatment, luminescence relative to 1% DMSO control)?
A: near-zero viability

From US20240069010A1, “TISSUE ORGANOID BIOPRINTING AND HIGH-THROUGHPUT SCREENING METHODOLOGY” (priority 2020, published 2024)
